Experimental data: US20250049798A1, “WEE1 PROTEIN KINASE DEGRADATION AGENT AND USE THEREOF” (HANGZHOU GLUBIO PHARMACEUTICAL CO. LTD., priority 2021, published 2025)
Like-named read-outs stand apart in the source and are kept apart here.

Tests used:
[1] = system: NCI-H1048 cells; experiment: NCI-H1048 cell proliferation assay (CTG assay); format: cell-based; conditions: Homo sapiens, 120 hours, read-out: CTG cellular assay_H1048: IC50
Protocol: NCI-H1048 Cell Proliferation Assay (CTG Assay) The following is an example of an assay that can be used to determine the anti-proliferative activity of Wee1 PROTACs in a small cell lung cancer cell line, NCI-H1048 (ATCC Cat #CRL-5853). This cell line was cultured in RPMI-1640 medium supplemented with 10% FBS. About 1,200 NCI-H1048 cells in 50 μL of culture medium were seeded into a 384-well plate (Cat #3764, Corning), pre-spotted with compounds using the Echo 650 liquid handler (Beckman). The dose-response-curve (DRC) typically has 10-points with a highest concentration at 10 μM, and half-log diluted to as low as 0.316 nM, plus a DMSO control. Assay plates were incubated at 37° C. with 5% CO2 for 120 hours. After that, 20 μL of the CellTiter-Glo (CTG) Luminescent Cell Viability Assay Reagent (Cat #G7573, Promega) was added to each well and incubated at room temperature for 30 minutes. Luminescence was then measured with Pherastar microplate reader (BMG Labtech). All percentage of cell growth inhibition curves were processed using Collaborative Drug Discovery Vault.
Cell viability reads in compound-treated wells were normalized to that of DMSO control and expressed as Percent of Control (PoC, y). A four Parameter Logistic Model was used to determine the compound's EC50 and DC50, using the following equation: […]

[2] = target: HiBiT tagged Wee1 (Homo sapiens, UniProt P30291); experiment: Wee1 protein degradation assay (HiBiT assay); format: cell-based; conditions: for Dmax: maximum percentage of Wee1 degradation, read-out: HiBiT Wee1: Dmax
[3] = engineered HT-1080 cells, 20 hours

HiBiT tagged Wee1, sequence (P30291 whole entry): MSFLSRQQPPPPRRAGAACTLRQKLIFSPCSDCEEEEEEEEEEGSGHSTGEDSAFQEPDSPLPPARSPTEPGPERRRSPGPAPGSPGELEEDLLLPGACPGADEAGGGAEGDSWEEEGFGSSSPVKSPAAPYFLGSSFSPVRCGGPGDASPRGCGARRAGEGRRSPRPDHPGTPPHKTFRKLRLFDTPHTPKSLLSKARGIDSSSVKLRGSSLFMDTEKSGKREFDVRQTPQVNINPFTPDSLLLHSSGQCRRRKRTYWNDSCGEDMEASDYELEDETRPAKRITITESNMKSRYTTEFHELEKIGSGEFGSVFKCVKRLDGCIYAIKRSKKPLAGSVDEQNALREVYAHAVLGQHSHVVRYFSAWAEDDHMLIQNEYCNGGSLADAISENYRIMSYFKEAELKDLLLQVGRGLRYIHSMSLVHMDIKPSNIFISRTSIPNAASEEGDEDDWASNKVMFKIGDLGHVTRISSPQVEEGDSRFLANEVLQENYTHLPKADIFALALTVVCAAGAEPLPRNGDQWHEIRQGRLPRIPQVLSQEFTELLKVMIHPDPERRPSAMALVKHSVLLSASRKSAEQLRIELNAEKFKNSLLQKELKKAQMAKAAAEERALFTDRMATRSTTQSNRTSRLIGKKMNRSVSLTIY

| Compound | IC50 [1] | DC50 [2, 3] | Dmax [2, 3] | Dmax ([2]; HT-1080, […]) |
| --- | --- | --- | --- | --- |
| C=CCn1c(=O)c2cnc(Nc3ccc(N4CCN(CC5CCN(c6ccc(NC7CCC(=O)NC7=O)cc6F)CC5)CC4)cc3)nc2n1-c1ccc2c(n1)[C@](C)(O)CC2 (single isomer, unassigned) [Compound 152-B] | ≤ 0.025 µM | < 0.1 µM | > 75% | – |
| O=C1CCC(N2C(=O)c3cccc(NCCCN4CCN(c5ccc(Nc6ncc7c(=O)n(-c8c(Cl)cccc8Cl)c8nccn8c7n6)cc5)CC4)c3C2=O)C(=O)N1 (stereo not drawn) [Compound 2] | 0.025 to 0.1 µM | < 0.1 µM | 50 to 75% | – |
| O=C1CCC(N2C(=O)c3ccc(N4CCC(CN5CCN(c6ccc(Nc7ncc8c(=O)n(-c9c(Cl)cccc9Cl)c9nccn9c8n7)cc6)CC5)CC4)cc3C2=O)C(=O)N1 (stereo not drawn) [Compound 3] | 0.025 to 0.1 µM | < 0.1 µM | 50 to 75% | – |
| C=CCn1c(=O)c2cnc(Nc3ccc4c(c3)CN(CC3CN(c5ccc6c(c5)C(=O)N(C5CCC(=O)NC5=O)C6=O)C3)CC4)nc2n1-c1cccc(C(C)(C)O)n1 (stereo not drawn) [Compound 6] | > 0.1 µM | > 1 µM | < 50% | – |
| C=CCn1c(=O)c2cnc(Nc3ccc4c(c3)CN(CC3CCN(c5ccc6c(c5)C(=O)N(C5CCC(=O)NC5=O)C6=O)CC3)CC4)nc2n1-c1cccc(C(C)(C)O)n1 (stereo not drawn) [Compound 7] | > 0.1 µM | > 1 µM | < 50% | – |
| C=CCn1c(=O)c2cnc(Nc3ccc(N4CCN(CC5CCN(c6ccc7c(c6)C(=O)N(C6CCC(=O)NC6=O)C7=O)CC5)CC4)cc3)nc2n1-c1cccc(C(C)(C)O)n1 (stereo not drawn) [Compound 8] | 0.025 to 0.1 µM | < 0.1 µM | 50 to 75% | – |
| C=CCn1c(=O)c2cnc(Nc3ccc(C4CCN(CC5CN(c6ccc7c(c6)C(=O)N(C6CCC(=O)NC6=O)C7=O)C5)CC4)cc3)nc2n1-c1cccc(C(C)(C)O)n1 (stereo not drawn) [Compound 9] | 0.025 to 0.1 µM | < 0.1 µM | 50 to 75% | – |
| C=CCn1c(=O)c2cnc(Nc3ccc(N4CCN(CC5CN(c6ccc7c(c6)C(=O)N(C6CCC(=O)NC6=O)C7=O)C5)CC4)cc3)nc2n1-c1cccc(C(C)(C)O)n1 (stereo not drawn) [Compound 10] | 0.025 to 0.1 µM | < 0.1 µM | 50 to 75% | – |
| O=C1CCC(N2C(=O)c3ccc(N4CCC(CN5CCC(c6ccc(Nc7ncc8c(=O)n(-c9c(Cl)cccc9Cl)c9nccn9c8n7)cc6)CC5)CC4)cc3C2=O)C(=O)N1 (stereo not drawn) [Compound 14] | 0.025 to 0.1 µM | < 0.1 µM | 50 to 75% | – |
| Cc1cc(Nc2ncc3c(n2)N(C)CN(c2c(Cl)cccc2Cl)C3=O)ccc1C1CCN(CC2CCN(c3ccc4c(c3)C(=O)N(C3CCC(=O)NC3=O)C4=O)CC2)CC1 (stereo not drawn) [Compound 16] | > 0.1 µM | > 1 µM | < 50% | – |
| CN1CN(c2c(Cl)cccc2Cl)C(=O)c2cnc(Nc3ccc(N4CCN(CCCNc5cccc6c5C(=O)N(C5CCC(=O)NC5=O)C6=O)CC4)cc3)nc21 (stereo not drawn) [Compound 17] | > 0.1 µM | > 1 µM | – | < 50% |
| Cc1cc(Nc2ncc3c(n2)N(C)CN(c2c(Cl)cccc2Cl)C3=O)ccc1C1CCN(CC2CN(c3ccc4c(c3)C(=O)N(C3CCC(=O)NC3=O)C4=O)C2)CC1 (stereo not drawn) [Compound 18] | > 0.1 µM | > 1 µM | < 50% | – |
| C=CCn1c(=O)c2cnc(Nc3ccc(C4CCN(CC5CCN(c6ccc7c(c6)C(=O)N(C6CCC(=O)NC6=O)C7=O)CC5)CC4)cc3)nc2n1-c1cccc(C(C)(C)O)n1 (stereo not drawn) [Compound 21] | 0.025 to 0.1 µM | < 0.1 µM | 50 to 75% | – |
| C=CCn1c(=O)c2cnc(Nc3ccc(C4CCN(C[C@@H]5CCN(c6ccc7c(c6)C(=O)N(C6CCC(=O)NC6=O)C7=O)C5)CC4)cc3)nc2n1-c1cccc(C(C)(C)O)n1 (stereo partly drawn) [Compound 37] | 0.025 to 0.1 µM | < 0.1 µM | 50 to 75% | – |
| C=CCn1c(=O)c2cnc(Nc3ccc(N4CCN(CCCc5ccc6c(c5)n(C)c(=O)n6C5CCC(=O)NC5=O)CC4)cc3)nc2n1-c1cccc(C(C)(C)O)n1 (stereo not drawn) [Compound 46] | 0.025 to 0.1 µM | < 0.1 µM | 50 to 75% | – |
| C=CCn1c(=O)c2cnc(Nc3ccc(N4CCN(CCCCc5ccc6c(c5)n(C)c(=O)n6C5CCC(=O)NC5=O)CC4)cc3)nc2n1-c1cccc(C(C)(C)O)n1 (stereo not drawn) [Compound 47] | ≤ 0.025 µM | 0.1 to 1 µM | 50 to 75% | – |
| C=CCn1c(=O)c2cnc(Nc3ccc(N4CCN(CCCCc5cccc6c5n(C)c(=O)n6C5CCC(=O)NC5=O)CC4)cc3)nc2n1-c1cccc(C(C)(C)O)n1 (stereo not drawn) [Compound 51] | ≤ 0.025 µM | < 0.1 µM | 50 to 75% | – |
| C=CCn1c(=O)c2cnc(Nc3ccc(N4CCC(CN5CCC(c6ccc7c(c6)n(C)c(=O)n7C6CCC(=O)NC6=O)CC5)CC4)cc3)nc2n1-c1cccc(C(C)(C)O)n1 (stereo not drawn) [Compound 52] | ≤ 0.025 µM | < 0.1 µM | 50 to 75% | – |
| C=CCn1c(=O)c2cnc(Nc3ccc(N4CCC(CN5CCC(c6cccc7c6n(C)c(=O)n7C6CCC(=O)NC6=O)CC5)CC4)cc3)nc2n1-c1ccc2c(n1)[C@@](O)(CC)CC2 (stereo partly drawn) [Compound 54] | 0.025 to 0.1 µM | < 0.1 µM | 50 to 75% | – |
| C=CCn1c(=O)c2cnc(Nc3ccc(N4CCC(N5CCN(c6ccc(NC7CCC(=O)NC7=O)cc6F)CC5)CC4)cc3)nc2n1-c1cccc(C(C)(C)O)n1 (stereo not drawn) [Compound 67] | ≤ 0.025 µM | < 0.1 µM | > 75% | – |
| C=CCn1c(=O)c2cnc(Nc3ccc(N4CCC(N5CCC(c6ccc(NC7CCC(=O)NC7=O)cc6)CC5)CC4)cc3)nc2n1-c1cccc(C(C)(C)O)n1 (stereo not drawn) [Compound 70] | ≤ 0.025 µM | < 0.1 µM | > 75% | – |
| C=CCn1c(=O)c2cnc(Nc3ccc(N4CCN(CC5CCN(c6ccc7c(C8CCC(=O)NC8=O)nn(C)c7c6)CC5)CC4)cc3)nc2n1-c1cccc(C(C)(C)O)n1 (stereo not drawn) [Compound 76] | ≤ 0.025 µM | < 0.1 µM | 50 to 75% | – |
| C=CCn1c(=O)c2cnc(Nc3ccc(C4CCN(CC5CCN(Cc6ccc7c(c6)n(C)c(=O)n7C6CCC(=O)NC6=O)CC5)CC4)cc3)nc2n1-c1cccc(C(C)(C)O)n1 (stereo not drawn) [Compound 79] | ≤ 0.025 µM | < 0.1 µM | 50 to 75% | – |
| C=CCn1c(=O)c2cnc(Nc3ccc(N4CCC(CN5CCC(c6ccc(NC7CCC(=O)NC7=O)cc6C(F)(F)F)CC5)CC4)cc3)nc2n1-c1cccc(C(C)(C)O)n1 (stereo not drawn) [Compound 80] | ≤ 0.025 µM | < 0.1 µM | > 75% | – |
| C=CCn1c(=O)c2cnc(Nc3ccc(N4CCC(CN5CCC(c6ccc(NC7CCC(=O)NC7=O)cc6F)CC5)CC4)cc3)nc2n1-c1cccc(C(C)(C)O)n1 (stereo not drawn) [Compound 81] | ≤ 0.025 µM | < 0.1 µM | > 75% | – |
| C=CCn1c(=O)c2cnc(Nc3ccc(N4CCC(N5CCC(c6ccc(NC7CCC(=O)NC7=O)cc6F)CC5)CC4)cc3)nc2n1-c1cccc(C(C)(C)O)n1 (stereo not drawn) [Compound 82] | ≤ 0.025 µM | < 0.1 µM | > 75% | – |
| C=CCn1c(=O)c2cnc(Nc3ccc(C4CCN(CC5CCN(c6ccc(NC7CCC(=O)NC7=O)cc6)CC5)CC4)cc3)nc2n1-c1cccc(C(C)(C)O)n1 (stereo not drawn) [Compound 85] | ≤ 0.025 µM | < 0.1 µM | 50 to 75% | – |
| C=CCn1c(=O)c2cnc(Nc3ccc(N4CCN(CC5CCN(c6ccc(NC7CCC(=O)NC7=O)cn6)CC5)CC4)cc3)nc2n1-c1cccc(C(C)(C)O)n1 (stereo not drawn) [Compound 87] | ≤ 0.025 µM | < 0.1 µM | > 75% | – |
| C=CCn1c(=O)c2cnc(Nc3ccc(C4CCN(CN5CCN(c6ccc7c(N8CCC(=O)NC8=O)nn(C)c7c6)CC5)CC4)cc3)nc2n1-c1cccc(C(C)(C)O)n1 [Compound 89] | ≤ 0.025 µM | < 0.1 µM | > 75% | – |
